tested on: SK-MEL-5 TRPM1-promoter luciferase reporter, 24 h; experiment: TRPM1 promoter luciferase signal decrease, dose response, MITF inhibitor project, cell-based, SK-MEL-5, cherry-picked, set 4 (AID 493102);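 further: actives lower the luciferase signal so the potency reflects inhibition of reporter expression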

| Compound | AC50 |
| --- | --- |
| O=[N+]([O-])c1cc(S(=O)(=O)N2CCCCCC2)ccc1F | 9.53 µM |
| O=C(CCl)Nc1cccc(S(=O)(=O)N2CCCCCC2)c1 | 11.8 µM |
| CN(C)CCNC(=O)/C(=C/c1ccc(-c2ccc(Cl)cc2Cl)o1)NC(=O)c1ccccc1 | 4.97 µM |
| CC(C)(C)c1ccc(/C=N/Nc2ccc(C(=O)O)cc2)cc1 | 6.03 µM |
| CC1CC(C)CN(C(=O)/C=C/c2ccc([N+](=O)[O-])s2)C1 (configuration not stated) | 11.9 µM |
| C/C(=C\c1ccc(N(C)C)cc1)[N+](=O)[O-] | 13.1 µM |
| COc1ccccc1OCCN1CSC(=S)N(C)C1 | 12.2 µM |
| Cn1nnnc1Sc1ncnc2scc(-c3ccc(F)cc3)c12 | 8.1 µM |
| Cc1ccccc1Cn1c(=N)n(CC(=O)c2ccc([N+](=O)[O-])cc2)c2ccccc21 | 5.63 µM |
| O=C(CNC(=O)c1cccc(F)c1)N/N=C/c1ccc([N+](=O)[O-])s1 | 7.45 µM |
| CCOC(=O)N1CCN(C(=O)c2ccc(Cn3c(=S)[nH]c4ccc(Br)cc4c3=O)cc2)CC1 | 3.52 µM |
| COc1ccc(N/N=C/c2c(C(=O)O)ccc3ccccc23)cc1 | 5.11 µM |
| CCOC(=O)N1C(=O)[C@](CC)(c2ccccc2)N1C(=O)OCC | 10 µM |
| BrC(=C\c1ccccc1)/C=N/n1cnnc1 | 7.26 µM |
| O=C(c1nnsc1S(=O)(=O)c1ccc(Cl)cc1)N1CCOCC1 | 9.51 µM |
| CCN1CCCC1CNC(=O)c1ccc2c(c1)NC(=O)/C(=C\c1ccc(OC)c(OC)c1)S2 (configuration not stated) | 13.8 µM |
| C[C@H]1CCC[C@]2(C)C[C@H]3OC(=O)C(CN4CCCCCC4)[C@H]3C=C12 (some centres not stated) | 13.9 µM |
| CN(C)S(=O)(=O)c1ccc(-c2csc(N/N=C/c3ccc(O)cc3)n2)cc1 | 4.6 µM |
| CC(C)=CCc1c(O)ccc2c1OC(c1ccc(O)c(O)c1)CC2=O (configuration not stated) | 11.7 µM |

| Compound | AC50 |
| --- | --- |
| O=C1C=C(N(CCO)Cc2ccccc2)c2ccccc2C1=O | 4.78 µM |
| Cc1cc(/C=C2\Sc3ccccc3N2C)cc(C)[n+]1CC1CCCO1 (configuration not stated) | 1.82 µM |
| CCOC(=O)/C=c1/s/c(=C/c2ccc3cc(OC)ccc3c2)c(=O)n1CC(=O)NCC1CCCO1 (configuration not stated) | 6.79 µM |
| Cc1cc2ncn(/N=C/c3ccc([N+](=O)[O-])o3)c2cc1C | 21.9 µM |
| C=CCSC(=S)NC1CCS(=O)(=O)C1 (configuration not stated) | 20.7 µM |
| Oc1c(Cl)cc(Cl)cc1/C=N/Nc1ncc(Br)cn1 | 7.84 µM |
| CN(C)c1ccc(-n2cccc2/C=C/[N+](=O)[O-])cc1 | 10.2 µM |
| COC(=O)c1ccc(-n2c(C)cc(C(=O)CCl)c2C)cc1 | 7.46 µM |
| Cc1cc(C)cc(OCC(=O)N/N=C/c2ccc([N+](=O)[O-])o2)c1 | 7.12 µM |
| C=CCN=C1NN=C(c2ccc3c(c2)OCCO3)CS1 | 3.37 µM |
| C=CCn1c(C)cc(C2=NNC(=NCC)SC2)c1C | 0.056 µM |
| CCOC(=O)CSC1=NC(=O)/C(=C/c2ccc(OC)cc2)S1 | 3.98 µM |
| NNC(=O)c1cc2ccccc2cc1O | 24 µM |
| c1ccc2cc3c(NCCN4CCOCC4)ccnc3cc2c1 | 2.91 µM |
| O=C1NC(=O)N(CCc2ccc(F)cc2)C(=O)/C1=C\C=C\c1ccccc1 | 8.26 µM |
| Cc1cc(C)n(-c2ccc(C(=O)Nc3ccc(C)c(S(=O)(=O)N4CCOCC4)c3)cc2)n1 | 4.54 µM |
| COc1ccc(/C=C2\SC(=O)N(CCCC(=O)Nc3cc(Cl)ccc3C(=O)O)C2=O)cc1 | 0.528 µM |
| N#C/C(=C\C=C\c1ccccc1[N+](=O)[O-])C(=O)NC1CCCCC1 | 7.8 µM |
| O=C1c2ccccc2S(=O)(=O)N1Cc1nc2ccccc2s1 | 2.7 µM |

| Compound | AC50 |
| --- | --- |
| O=C(O)c1cccc(NC(=O)c2cccc(NC(=O)C3CCCO3)c2)c1 (configuration not stated) | 21.2 µM |
| O=C(O)c1ccc(N/N=C/c2ccc3nccnc3c2)cc1 | 0.696 µM |
| Cc1ccc(NC(=O)c2ccc([N+](=O)[O-])s2)cc1S(=O)(=O)N1CCOCC1 | 3.78 µM |
| CC(Oc1ccc(F)cc1)C(=O)Nc1nc(-c2ccccn2)cs1 (configuration not stated) | 9.42 µM |
| Cc1cccc(/C=C2/Sc3ccc(C(=O)NCCN4CCCC4)cc3NC2=O)c1 | 18.4 µM |
| O=[N+]([O-])c1cc(Cl)cc(/C=N\Nc2ccccn2)c1O | 4.49 µM |
| O=C(Nc1cccc(Cl)c1)Nc1cc(S(=O)(=O)N2CCCCC2)ccc1Cl | 12 µM |
| Cc1ccc(C)c(NC(=O)/C(C#N)=C/c2cn(CC(=O)NCc3ccco3)c3ccccc23)c1 | 6.56 µM |
| NCCN1C(=O)S/C(=C\c2ccc3c(c2)OCO3)C1=O | 22.3 µM |
| CC(=O)CSc1ccc(-c2nc3cc(C)c(C)cc3[nH]2)cn1 | 3.67 µM |
| Cc1cc(C)c2nc3nc(C)cc(C)c3c(N)c2c1 | 5.72 µM |
| CCC(=O)NC(c1ccccc1OC)c1ccc2cccnc2c1O (configuration not stated) | 6.7 µM |
| CN=c1scc(-c2ccccc2F)n1/N=C/c1ccc[nH]1 | 0.019 µM |
| CCCCN(C)CC(O)Cn1cc(/C=C/C(=O)c2cccs2)c2ccccc21 (configuration not stated) | 14.3 µM |
| Cc1cc(Br)ccc1NC(=O)CNC(=O)Cn1ncc(Cl)c(Cl)c1=O | 7.47 µM |
| COc1cccc(-c2csc3ncnc(Sc4nnnn4C)c23)c1 | 25 µM |
| COc1ccc(/C=N/Nc2cc(C)nc(-n3nc(C)cc3C)n2)c(OC)c1 | 10.4 µM |
| O=C(COC(=O)CCN1C(=O)/C(=C\C=C\c2ccccc2)SC1=S)Nc1cc(F)ccc1F | 7.49 µM |
| Cc1cc(C)cc(NS(=O)(=O)c2ccc3c(c2)c(=O)n(C)c(=O)n3C)c1 | 4.67 µM |

— PubChem BioAssay AID493102 (Broad Institute, 2011)
